Patent US20090099167A1, “Organic compounds” (Novartis Institutes for Biomedical Research, priority 2004, published 2009)
Read-outs that look alike come from different tables or passages of the source.

Legend:
c-Src kinase = c-Src kinase (Homo sapiens, UniProt P12931); test: c-Src kinase inhibition; assay type: biochemical
Source text: An appropriate assay is described in Andrejauskas-Buchdunger et al., Cancer Res. 52, 5353-8 (1992).

Cdk1/cycB = Cdk1/cycB (UniProt P06493); test: Cdk1/cycB kinase assay, histone H1 substrate; assay type: biochemical, starfish
Experimental: The inhibition of Cdk1 can be determined as follows: Cdk1/cycB: Cdk1/cycB are obtained from ProQinase, Freiburg, Germany. Starfish oocytes are induced to enter M phase of the cell cycle with 10 μM 1-methyladenine and frozen in liquid nitrogen and stored at −80° C. […] Briefly, the supernatant from oocytes is equilibrated for 30 min at 4° C. under constant rotation with the p9^CKShs-sepharose beads. The beads are extensively washed and active cdk1/cycB kinase is eluted with purified p9^CKShs (3 mg/ml). […] The assay is carried with slight modifications in 96-well plates at ambient temperature for 20 min. […] The reaction is terminated by addition of 25 μl 0.05 M EDTA pH 7.0. An aliquot of 40 μl is spotted with a multichannel dispenser on Immobilon P membranes mounted in a Millipore Microtiter filter manifold connected to a low vacuum source. After elimination of liquid, the membrane is transferred to a sequence of 4 washing baths containing 0.5% H3PO4 and one with EtOH (shaking incubation for 10 min each), dried, mounted onto a Hewlett Packard TopCount manifold added 10 μl Microscint® and counted. […] Cells were seeded at 2.5×10^7 cells per 150 mm dish and allowed to attach to a 150 mm dish for 1 hr at RT. Media (SF900II containing 10% FBS) is aspirated and recombinant baculovirus; GST-C-Raf-1, v-Ras and v-Src are added at MOI of 3.0, 2.5 and 2.5 receptively in a total volume of 4-5 mL. Cells are incubated for 1 hr at RT and then 15 mL of medium is added. Infected cells are incubated for 48-72 hr at 27° C. Infected Sf21 cells are scraped and collected into a 50 mL tube and centrifuged for 10 min at 4° C. at 1100 g in a Sorvall centrifuge. The cell pellet is washed once with ice cold PBS and lysed with 0.6 mL lysis buffer per 2.5×10^7 cells. Complete lysis of cells is achieved after 10 min on ice with occasional pipetting. […] GST-c-Raf-1 was allowed to bind to the beads at 4° C. for 1 hr with rocking. Bound GST-c-Raf-1 with beads was transferred to a column. The column is washed once with lysis buffer and twice with ice cold Tris buffered saline. Ice cold elution buffer is added and column flow is stopped to allow the free glutathione to disrupt the interaction of GST-c-Raf-1 with glutathione sepharose beads. Fractions (1 mL) are collected into pre-chilled tubes. Each tube contains 10% glycerol (final concentration) to maintain kinase activity during freeze thaw cycles. Purified fractions of GST-c-Raf-1 kinase protein are stored at −80° C.

[1] = Table 5, read-out: c-scr, IC50 class
[2] = Table 5, read-out: CDK1/B, IC50 class
[3] = Table 4, read-out: Cdk1, activity (IC50 for kinase inhibition)

Sequence of c-Src kinase (P12931 whole entry): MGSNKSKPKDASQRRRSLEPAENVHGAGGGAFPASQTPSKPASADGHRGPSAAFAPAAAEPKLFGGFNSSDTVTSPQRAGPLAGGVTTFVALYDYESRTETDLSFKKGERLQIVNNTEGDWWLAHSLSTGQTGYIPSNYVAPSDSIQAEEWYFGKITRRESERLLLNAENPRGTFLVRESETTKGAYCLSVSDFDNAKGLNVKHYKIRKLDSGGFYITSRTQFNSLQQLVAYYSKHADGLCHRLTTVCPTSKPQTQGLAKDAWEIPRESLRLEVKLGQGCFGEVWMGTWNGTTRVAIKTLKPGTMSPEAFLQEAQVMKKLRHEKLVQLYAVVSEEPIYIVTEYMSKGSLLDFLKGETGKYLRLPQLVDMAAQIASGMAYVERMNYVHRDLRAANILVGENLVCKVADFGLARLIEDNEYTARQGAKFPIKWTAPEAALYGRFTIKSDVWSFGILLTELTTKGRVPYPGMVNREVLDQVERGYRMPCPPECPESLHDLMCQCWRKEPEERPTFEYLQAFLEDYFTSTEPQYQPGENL

Row | SMILES | IC50 (c-Src kinase; [1]) [µM] | IC50 (Cdk1/cycB; [2]) [µM] | IC50 (Cdk1/cycB; [3]) [µM] | IC50 (c-Src kinase; Table 4, read-out: s-Scr, activity (IC50 for kinase inhibition)) [µM]
1 | CN1CCN(c2cccc(-c3cnn4c(N)c(Cc5ccccc5)cnc34)c2)CC1 [Example 91, 6-Benzyl-3-[3-(4-methyl-piperazin-1-yl)-phenyl]-pyrazolo[1,5-a]pyrimidin-7-ylamine] | > 10 | > 10 | – | –
2 | Cc1nc2c(-c3cccc(N4CCN(CCO)CC4)c3)cnn2c(N)c1-c1ccc(F)c(Cl)c1 [Example 100, 2-(4-{3-[7-Amino-6-(3-chloro-4-fluoro-phenyl)-5-methyl-pyrazolo[1,5-a]pyrimidin-3-yl]-phenyl}-piperazin-1-yl)-ethanol] | < 1 | > 10 | – | –
3 | COc1cccc(-c2cnn3c(N)c(-c4cccc(O)c4)cnc23)c1 [Example 60, 3-[7-Amino-3-(3-methoxy-phenyl)-pyrazolo[1,5-a]pyrimidin-6-yl]-phenol] | – | – | < 10 | –
4 | Cc1nc2c(-c3ccc(N4CCN(C)CC4)cc3)cnn2c(N)c1-c1ccc(F)cc1 [Example 79, 6-(4-Fluoro-phenyl)-5-methyl-3-[4-(4-methyl-piperazin-1-yl)-phenyl]-pyrazolo[1,5-a]pyrimidin-7-ylamine] | < 1 | > 10 | – | –
5 | Cc1nc2c(-c3cccc(N4C[C@@H](C)O[C@@H](C)C4)c3)cnn2c(N)c1-c1cccc(Cl)c1 [Example 89, 6-(3-Chloro-phenyl)-3-[3-((2R,6S)-2,6-dimethyl-morpholin-4-yl)-phenyl]-5-methyl-pyrazolo[1,5-a]pyrimidin-7-ylamine] | < 1 | > 10 | – | –
6 | COc1ccc(-c2cnn3c(N)c(-c4ccc(F)c(Cl)c4)c(C)nc23)cc1OC [Example 94, 6-(3-Chloro-4-fluoro-phenyl)-3-(3,4-dimethoxy-phenyl)-5-methyl-pyrazolo[1,5-a]pyrimidin-7-ylamine] | < 1 | > 10 | – | –
7 | Cc1nc2c(-c3cccc(N4CCN(C)CC4)c3)cnn2c(N)c1-c1ccc(F)c(F)c1 [Example 98, 6-(3,4-Difluoro-phenyl)-5-methyl-3-[3-(4-methyl-piperazin-1-yl)-phenyl]-pyrazolo[1,5-a]pyrimidin-7-ylamine] | < 1 | > 10 | – | –
8 | COc1cc(N2CCN(C)CC2)ccc1-c1cnn2c(N)c(-c3cccc(O)c3)cnc12 [Example 76, 3-{7-Amino-3-[2-methoxy-4-(4-methyl-piperazin-1-yl)-phenyl]-pyrazolo[1,5-a]pyrimidin-6-yl}-phenol] | – | > 10 | – | –
9 | Cc1nc2c(-c3cccc(N4CCC(N5CCCC5)CC4)c3)cnn2c(N)c1-c1ccc(F)cc1 [Example 103, 6-(4-Fluoro-phenyl)-5-methyl-3-[3-(4-pyrrolidin-1-yl-piperidin-1-yl)-phenyl]-pyrazolo[1,5-a]pyrimidin-7-ylamine] | < 1 | > 10 | – | –
10 | Cc1nc2c(-c3ccc(N4CCN(C)CC4)cc3)cnn2c(N)c1-c1ccc(F)c(Cl)c1 [Example 83, 6-(3-Chloro-4-fluoro-phenyl)-5-methyl-3-[4-(4-methyl-piperazin-1-yl)-phenyl]-pyrazolo[1,5-a]pyrimidin-7-ylamine] | < 1 | > 10 | – | –
11 | Cc1nc2c(-c3cccc(N4CCC(N5CCCC5)CC4)c3)cnn2c(N)c1-c1cccc(Cl)c1 [Example 102, 6-(3-Chloro-phenyl)-5-methyl-3-[3-(4-pyrrolidin-1-yl-piperidin-1-yl)-phenyl]-pyrazolo[1,5-a]pyrimidin-7-ylamine] | < 1 | > 10 | – | –
12 | Cc1nc2c(-c3cccc(N4CCN(C)CC4)c3)cnn2c(N)c1-c1ccc(F)c(Cl)c1 [Example 82, 6-(3-Chloro-4-fluoro-phenyl)-5-methyl-3-[3-(4-methyl-piperazin-1-yl)-phenyl]pyrazolo[1,5-a]pyrimidin-7-ylamine] | < 1 | > 10 | – | –
13 | COc1ccc(-c2cnn3c(N)c(-c4ccc(F)cc4)c(C)nc23)cc1 [Example 96, 6-(4-Fluoro-phenyl)-3-(4-methoxy-phenyl)-5-methyl-pyrazolo[1,5-a]pyrimidin-7-ylamine] | < 1 | > 10 | – | –
14 | Cc1nc2c(-c3cccc([N+]4([O-])CC[N+](C)([O-])CC4)c3)cnn2c(N)c1-c1ccc(F)cc1 (stereo not shown) [Example 107, 6-(4-Fluoro-phenyl)-5-methyl-3-[3-(4-methyl-1,4-dioxy-piperazin-1-yl)-phenyl]-pyrazolo[1,5-a]pyrimidin-7-ylamine] | < 1 | > 10 | – | –
15 | COc1ccc(-c2cnn3c(N)c(-c4ccc(F)c(F)c4)c(C)nc23)cc1OC [Example 99, 6-(3,4-Difluoro-phenyl)-3-(3,4-dimethoxy-phenyl)-5-methyl-pyrazolo[1,5-a]pyrimidin-7-ylamine] | < 1 | > 10 | – | –
16 | Cc1nc2c(-c3ccc(N4CCN(C)CC4)cc3)cnn2c(N)c1-c1cccc(Cl)c1 [Example 73, 6-(3-Chloro-phenyl)-5-methyl-3-[4-(4-methyl-piperazin-1-yl)-phenyl]-pyrazolo[1,5-a]pyrimidin-7-ylamine] | < 1 | > 10 | – | –
17 | Nc1c(-c2cccc(O)c2)cnc2c(-c3cccnc3)cnn12 [Example 46, 3-[7-Amino-3-pyridin-3-yl-pyrazolo[1,5-a]pyrimidin-6-yl]-phenol] | – | – | < 10 | –
18 | COc1ccc(-c2cnn3c(N)c(-c4cccc(Cl)c4)c(CF)nc23)cc1OC [Example 92, 6-(3-Chloro-phenyl)-3-(3,4-dimethoxy-phenyl)-5-fluoromethyl-pyrazolo[1,5-a]pyrimidin-7-ylamine] | – | > 10 | – | –
19 | Cc1nc2c(-c3cccc(N4CCN(CCO)CC4)c3)cnn2c(N)c1-c1cccc(Cl)c1 [Example 90, 2-(4-{3-[7-Amino-6-(3-chloro-phenyl)-5-methyl-pyrazolo[1,5-a]pyrimidin-3-yl]-phenyl}-piperazin-1-yl)-ethanol] | < 1 | > 10 | – | –
20 | CN1CCN(c2cccc(-c3cnn4c(N)c(-c5cccc(Br)c5)cnc34)c2)CC1 [Example 86, 6-(3-Bromo-phenyl)-3-[3-(4-methyl-piperazin-1-yl)-phenyl]-pyrazolo[1,5-a]pyrimidin-7-ylamine] | < 1 | > 10 | – | –
21 | CN1CCN(c2cccc(-c3cnn4c(N)c(Cc5cccc(Br)c5)cnc34)c2)CC1 [Example 85, 6-(3-Bromo-benzyl)-3-[3-(4-methyl-piperazin-1-yl)-phenyl]pyrazolo[1,5-a]pyrimidin-7-ylamine] | < 1 | > 10 | – | –
22 | Cc1nc2c(-c3cccc(N4CCN(C5CCN(C)CC5)CC4)c3)cnn2c(N)c1-c1cccc(Cl)c1 [Example 81, 6-(3-Chloro-phenyl)-5-methyl-3-{3-[4-(1-methyl-piperidin-4-yl)-piperazin-1-yl]-phenyl}-pyrazolo[1,5-a]pyrimidin-7-ylamine] | < 1 | > 10 | – | –
23 | COc1ccccc1-c1cnn2c(N)c(-c3cccc(O)c3)cnc12 [Example 48, 3-[7-Amino-3-(2-methoxy-phenyl)-pyrazolo[1,5-a]pyrimidin-6-yl]-phenol] | – | – | – | < 10
24 | Cc1nc2c(-c3cccc(N4CC[N+](C)([O-])CC4)c3)cnn2c(N)c1-c1ccc(F)cc1 [Example 106, 6-(4-Fluoro-phenyl)-5-methyl-3-[3-(4-methyl-4-oxy-piperazin-1-yl)-phenyl]-pyrazolo[1,5-a]pyrimidin-7-ylamine] | < 1 | > 10 | – | –
25 | COc1ccc(-c2cnn3c(N)c(-c4cccc(Cl)c4)c(C)nc23)cc1 [Example 88, 6-(3-Chloro-phenyl)-3-(4-methoxy-phenyl)-5-methyl-pyrazolo[1,5-a]pyrimidin-7-ylamine] | < 1 | > 10 | – | –
26 | Cc1nc2c(-c3cccc(N4CCOCC4)c3)cnn2c(N)c1-c1cccc(Cl)c1 [Example 87, 6-(3-Chloro-phenyl)-5-methyl-3-(3-morpholin-4-yl-phenyl)-pyrazolo[1,5-a]pyrimidin-7-ylamine] | < 1 | > 10 | – | –
27 | Cc1nc2c(-c3cccc(N4CCN(C)CC4)c3)cnn2c(N)c1-c1cccc(Br)c1 [Example 84, 6-(3-Bromo-phenyl)-5-methyl-3-[3-(4-methyl-piperazin-1-yl)-phenyl]-pyrazolo[1,5-a]pyrimidin-7-ylamine] | < 1 | > 10 | – | –
